Among the data in PubChem BioAssay AID2061108 (Research group of Professor Matthew Todd, School of …, 2025) are haemolysis and inhibition values, retold here.

The structures appear in SMILES notation. Calls of active or inactive are those of the source. No rule for the calls is given here.

Common to all, as to assay: antibacterial and antifungal growth inhibition panel, profiling panel, Idler compounds, first plate, PMBN-permeabilized strains (AID 2061108)
Set-up in all cases: haemolysis: dose or concentration left out as unconfirmed

Experiment [1] relates to red blood cell haemolysis. To be noted: stronger effect = higher value; dose or concentration not given here.
The test system of experiment [2] is E. coli NCTC 12923 growth inhibition, 100 uM. The conditions noted are these: E. coli NCTC 12923 growth inhibition, 100 µM; stronger effect = higher value.
Experiment [3] concerns S. aureus ATCC 9144 growth inhibition, 100 uM. The conditions noted are these: S. aureus ATCC 9144 growth inhibition; at 100 µM; stronger effect = higher value.
Experiment [4] concerns C. albicans NCPF 3281 growth inhibition, 100 uM. The conditions noted are these: S. aureus ATCC 9144 growth inhibition; measured here: C. albicans NCPF 3281; at 100 µM; stronger effect = higher value.
The subject of experiment [5] is E. coli NCTC 12923 + PMBN growth inhibition, 100 uM. The conditions noted are these: S. aureus ATCC 9144 growth inhibition; measured here: E. coli plus PMBN; at 100 µM; stronger effect = higher value.
The subject of experiment [6] is A. baumannii ATCC 17978 growth inhibition, 100 uM. To be noted: S. aureus ATCC 9144 growth inhibition; measured here: A. baumannii ATCC 17978; at 100 µM; stronger effect = higher value.
Experiment [7] concerns M. avium growth inhibition, 10 uM. To be noted: M. avium growth inhibition, 10 µM.
Experiment [8] concerns M. abscessus growth inhibition, 10 uM. To be noted: S. aureus ATCC 9144 growth inhibition; measured here: M. abscessus; at 10 µM.
For experiment [9], the system named is A. baumannii ATCC 17978 + PMBN growth inhibition, 100 uM. To be noted: A. baumannii plus PMBN growth inhibition, 100 µM; stronger effect = higher value.

For `O=S(=O)(F)c1cccc(NCc2ccc(F)cc2)n1`, the haemolysis in [1] is -0.396%. In addition, the inhibition in experiment [2] is -1.49%; in experiment [3], 13% (inactive); in [4], -98.2%; in [5], 0.494%; in [6], -3.33%; in experiment [7], 1.19%. Besides, the inhibition is -1.1% in experiment [8] and 16.7% in experiment [9].

For the compound `Nc1ncc(/C=N/NC(=O)c2ccncc2)cn1`, in experiment [1], the haemolysis was -0.164%. Besides, the inhibition in experiment [2] was -0.946%; in experiment [3] it was 19.2% (inactive); in experiment [4], 3.92%; in experiment [5], -2.1%; in [6] it was -1.43%; in experiment [7], 0.0378%. In addition, the inhibition in experiment [8] was -0.71%; in experiment [9], 11.3%.

With `O=c1[nH]c(=O)c2cc(S(=O)(=O)Nc3cc(F)c(NCCN4CCOCC4)c(F)c3)ccc2[nH]1`, the haemolysis in experiment [1] was -0.0292%. The inhibition in experiment [2] is -4.32%; in experiment [3] it was 17.7% (inactive); in experiment [4], -21.1%; in experiment [5], 0.988%; in experiment [6], -1.9%; in experiment [7] it was -0.106%. The results for the inhibition in experiment [8] and in [9] were -0.977% and 12%, respectively.

Turning to `O=C(Nc1ccc(Oc2ccccc2)cc1)c1ccc(-c2nn[nH]n2)nc1`, in [1], the haemolysis is -0.153%. Moreover, the inhibition in experiment [2] was 0.676%; in experiment [3], 15% (inactive); in experiment [4], -10.3%; in experiment [5], 10.6%; in experiment [6], -1.31%; in experiment [7] it was -0.673%. Further, the inhibition was -0.682% in [8] and 15.2% in experiment [9].

`COc1ccc(/C=C(\C#N)S(=O)(=O)c2ccccc2)cc1OC`: in experiment [1], the haemolysis worked out at 2.6%. The inhibition was -0.135% in experiment [2]; 16.3% (inactive) in experiment [3]; -60.8% in experiment [4]; 3.58% in experiment [5]; 0.595% in experiment [6]; -0.352% in [7]. The inhibition in [8] is -0.905%; in experiment [9], 12.6%.

As to `COc1cccc(C(=O)Nc2nc3cc(Cl)c(OC)cc3s2)c1`, the haemolysis in experiment [1] amounted to 4.42%. The inhibition was -30.8% in experiment [2]; 2.28% (inactive) in experiment [3]; -74.4% in [4]; -13.2% in experiment [5]; -4.34% in experiment [6]; 0.396% in experiment [7]. Moreover, the inhibition in experiment [8] is -0.266%; in experiment [9], 19.1%.

With `CCn1c(SCC(=O)N(C)c2ccccc2)nnc1-c1cn(C)nc1OC`, the haemolysis in experiment [1] was 0.564%. Besides, the inhibition in experiment [2] is -41.1%; in experiment [3], -11.4% (inactive); in experiment [4], 8.04%; in [5] it was -23.5%; in experiment [6] it was -2.53%; in experiment [7], -1.26%. In addition, the results for the inhibition in experiment [8] and in experiment [9] were 0.00036% and 4.29%, respectively.

With `O=C(NC1(c2ccc(Cl)cc2)COC1)c1ccc(N2CCCCC2)cc1`, in experiment [1], the haemolysis came out at 0.302%. Further, the inhibition was -30% in [2]; 4.21% (inactive) in [3]; -54.3% in experiment [4]; -14% in experiment [5]; -22.2% in experiment [6]; 0.252% in experiment [7]. Further, the inhibition in experiment [8] is -0.149%; in experiment [9], 13.9%.

For the compound `O=S(=O)(NC1(Cc2ccc(Cl)cc2Cl)CCC1)c1ccc(-c2nn[nH]n2)cc1`, in experiment [1], the haemolysis is -0.271%. The inhibition in experiment [2] was 0.135%; in experiment [3], 17% (inactive); in experiment [4], -103%; in experiment [5], 22.2%; in experiment [6], 22.7%; in [7] it was 0.393%. For the same compound, the inhibition in [8] is -1.11%; in [9], 65.8%.

As for `COc1ccc(-c2nc(N3CCC(N(C)C)C3)c3cc(OC)c(OC)cc3n2)cc1` (stereo not given), the haemolysis in experiment [1] is 0.312%. Also, the inhibition in experiment [2] is 6.35%; in [3], 10.4% (inactive); in experiment [4], 2.3%; in [5] it was -11%; in experiment [6], -3.73%; in experiment [7], 3.41%. Besides, the values for the inhibition in experiment [8] and in experiment [9] were 0.735% and 39.9%, respectively.

On to `CN(C)C(=O)c1cncc(-c2cccc(C3(C#N)CC3)c2)c1`, for which the haemolysis in experiment [1] came to 0.107%. Moreover, the inhibition was -5% in [2]; 4.91% (inactive) in experiment [3]; -67.1% in experiment [4]; -3.05% in [5]; 3.37% in experiment [6]; 0.148% in experiment [7]. Besides, the figures for the inhibition in [8] and in experiment [9] were -0.0258% and 23.7%, respectively.

With `O=C(N/N=C/C1CCOCC1)c1ccncc1`, the haemolysis in [1] was 1.63%. The inhibition in experiment [2] was -1.62%; in experiment [3] it was 16% (inactive); in [4], -26.5%; in [5] it was 1.11%; in experiment [6], 0.357%; in [7], 4.75%. For the same compound, the values for the inhibition in experiment [8] and in experiment [9] were -2.72% and 13.2%, respectively.

As to `C=CC(=O)N1CCC[C@H](CC(=O)O)C1`, the haemolysis in experiment [1] was -0.0261%. In addition, the inhibition was -6.76% in [2]; 14.4% (inactive) in experiment [3]; -64.4% in experiment [4]; 5.85% in experiment [5]; 0% in experiment [6]; 0.225% in [7]. Moreover, the results for the inhibition in experiment [8] and in experiment [9] were -0.00311% and 22.4%, respectively.

`CC(C)CC(N)C(=O)NS(=O)(=O)c1cccc(-c2cc3ncnc(N)c3s2)c1` (stereo not given): the haemolysis in [1] is -0.408%. The inhibition in experiment [2] is -84.3%; in experiment [3] it was -17.7% (inactive); in [4] it was 43.5%; in experiment [5] it was -22.3%; in [6], -8.69%; in experiment [7], 12%. In addition, the values for the inhibition in [8] and in experiment [9] were -0.687% and -8.7%, respectively.

Take `CS(=O)(=O)CCCNC[C@@H](O)c1ccccc1`: the haemolysis in [1] is 0.325%. The inhibition in experiment [2] was -6.89%; in [3], 14.7% (inactive); in [4] it was -65.9%; in experiment [5] it was 1.22%; in experiment [6], -0.12%; in [7], 0.187%. In addition, the inhibition in experiment [8] was -0.256%; in [9], 20.9%.

`O=S(=O)(Nc1ccc(Oc2ccccc2)cc1)c1ccc(-c2nn[nH]n2)cc1`: the haemolysis in experiment [1] was found to be 1.69%. Besides, the inhibition is 0.135% in experiment [2]; 70% (inactive) in experiment [3]; -30.5% in experiment [4]; 21.7% in experiment [5]; -18.3% in experiment [6]; 0.208% in [7]. The figures for the inhibition in [8] and in experiment [9] were -0.359% and 34.1%, respectively.

For the compound `Cc1ncsc1CCCN(C)c1cnc(S(=O)(=O)F)c(Br)c1`, the haemolysis in experiment [1] was determined as 0.616%. Further, the inhibition is 1.49% in experiment [2]; 16.7% (inactive) in [3]; -94.3% in experiment [4]; 0.37% in experiment [5]; -2.86% in [6]; 0.0507% in experiment [7]. The results for the inhibition in [8] and in experiment [9] were -0.937% and 21.9%, respectively.

Turning to `N#Cc1c(N2Cc3cccc(O)c3C2)nc2ccccc2c1C(F)(F)F`, the haemolysis in [1] is -0.139%. Further, the inhibition is 2.16% in experiment [2]; 97% in [3]; 3.66% in experiment [4]; 35.4% in experiment [5]; 23.8% in experiment [6]; 0.654% in experiment [7]. Moreover, the figures for the inhibition in experiment [8] and in experiment [9] were -1.26% and 33.9%, respectively.

Turning to `O=C(Nc1ccc(Oc2ccccc2)cc1)c1cccc(-c2nn[nH]n2)c1`, the haemolysis in [1] came to 1.82%. Besides, the inhibition was -9.59% in experiment [2]; 9.5% (inactive) in [3]; -19% in experiment [4]; 5.93% in [5]; -3.57% in experiment [6]; 0.254% in experiment [7]. The inhibition in [8] was -0.704%; in experiment [9] it was 18.8%.

As to `O=C(NC1(c2ccc(Br)cc2)COC1)c1ccc(N2CCOCC2)cc1`, in experiment [1], the haemolysis came out at 0.177%. The inhibition in experiment [2] was -5.27%; in [3] it was 5.33% (inactive); in experiment [4], -56.4%; in [5], 4.32%; in experiment [6] it was 1.43%; in experiment [7], -0.734%. Also, the results for the inhibition in experiment [8] and in experiment [9] were -1% and 17.5%, respectively.

For orientation: inhibition means the change of the read-out against control, counted positive when it falls.
